According to US20240382487A1, “NOVEL COPI/ARF1-LIPOLYSIS PATHWAY INHIBITOR AND COMPOUND FOR ERADICATING CANCER STEM CELLS AND INDUCING DAMP-MEDIATED ANTI-TUMOR IMMUNE RESPONSE” (FUDAN UNIVERSITY, priority 2020, published 2024):
Like-named read-outs stand apart in the source and are kept apart here.

What was measured:
B16-F10 melanoma = test: Lung metastasis of B16-F10 melanoma after tail vein injection; format: in vivo, C57B/6 mice; conditions: B16-F10 cells treated with 10 μM Du 102, tail vein injection; lungs removed 15 days after injection
Protocol: B16-f10 tumor cells (treated with DMSO or 10 μM Du 102 treatment) was transferred intravenously via tail vein injection. Lungs were removed 15 days after injection and fixed in fekete's solution overnight. Three investigators in a blinded manner statistically available (Table 17).

[1] = system: Drosophila stem cell tumors; test: Drosophila screen (stem cell / intestinal tumors); format: in vivo
Excerpt: We tested 10 reported Arf1 inhibitors (Bill et al., 2011; Boal et al., 2010; Feng et al., 2004; Newton et al., 2006; Ohashi et al., 2012; Sáenz et al., 2009; Sorieul et al., 2011; Viaud et al., 2007), including brefeldin A (BFA), Golgicide A (GCA), LM11, Secin16, Secin H3, Secin B7, Exo1, Exo2, LG8, and LG18, on Drosophila stem cell tumors and normal human bone marrow hematopoietic stem cells (HSCs).

tumor cells = test: Tumor cytotoxicity experiments in vitro (all lines, general statements); format: cell-based; conditions: HT29, LoVo, Huh7, H460, A549; FIG. 2-7
Excerpt: (§1) In different tumor cytotoxicity experiments in vitro (FIG. 2-FIG. 7), including colorectal cancer cell lines HT29 and LoVo cells, liver cancer cell Huh7, lung cancer cells H460 and A549, the arf1 inhibitor could all inhibit tumor cell growth (FIG. 2-FIG. 6), and there was a dose-dependent manner (FIG. 7).

4T1 breast carcinoma = test: Vaccination model, drug-treated 4T1 cells in BALB/c mice; format: in vivo; design: unit not given here; conditions: 4T1, BALB/c mice; for tumor size, left side with drug treatment: cells treated with 10 μM Du 102
[2] = system: chemokines and T cell activation markers; test: Chemokines and T cell activation markers by quantitative RT-PCR in MYC-ON mice; format: in vivo
Protocol: Chemokines and T cell activation markers were measured by quantitative RT-PCR in DMSO or du102 treated MYC-ON mice. CD8 T cell infiltration and immunostimulatory cytokine expression were increased as measured by quantitative RT-PCR. […] CCL5 and CXCL10 chemokines stimulate CD4+ and CD8+ lymphocytes tumor infiltration (Parkes et al., 2017), and CXCL10 and CXCL11 are T cell associated chemokines.

lung cancer cells A549 = test: In vitro cell line screening, A549; format: cell-based
Excerpt: as §1

CT-26 colon carcinoma = test: Drug-treated CT-26 cells in athymic nude mice; format: in vivo; design: unit not given here; conditions: cells treated with 10 μM Du 102
Protocol: The immunogenicity of the reagents can be tested in mouse vaccination models (Obeid et al., 2007; Sagiv barfi et al., 2018). One flank of the mouse was injected with drug treated tumor cells, followed one week later by a second injection of syngeneic tumor cells. We tested the vaccine efficacy in CT-26 colon cancer, B16-F10 melanoma, and 4T1 breast cancer treated with DMSO or du102.
Cells will be treated with 10 μM Du 102 or DMSO treated CT26, 4T1 and B16-F10 tumor cells (5×10^5\1×10^5 and 5×10^5, respectively) were subcutaneously inoculated into 6-week-old female mice. After 7 days, equal amounts of corresponding tumor cells were seeded to the right side. Tumor cell lines were mixed with Matrigel (GIBCO, cat s̆ 354234) or resuspended in PBS and injected subcutaneously or intradermally.

liver cancer cell Huh7 = test: In vitro cell line screening, Huh7; format: cell-based
Excerpt: as §1

[3] = system: T cell activation markers; test: T cell activation markers, 4T1 breast carcinoma in BALB/c mice; format: in vivo; conditions: DMSO 1.0
Excerpt: Example 10. Du 102 Treatment Induces the Expression of T Cell Activation Markers of 4T1 Breast Cancer in BALB/c Mice

Arf1 = target: T1, Arf1 (Homo sapiens, UniProt P84077); test: Active Arf1 Pull-Down and Detection Kit (GTP-bound Arf1); format: biochemical; conditions: liver cancer Huh-7 cell lysate; FIG. 1
T1 construct: Active Arf1 was detected by using The Thermo Scientific Pierce Active Arf1 Pull-Down and Detection Kit (Cat #16121) with liver cancer Huh-7 cell lysate; endogenous in cells; host or cells: Huh-7 liver cancer cells (lysate)
T1 sequence (P84077 whole entry): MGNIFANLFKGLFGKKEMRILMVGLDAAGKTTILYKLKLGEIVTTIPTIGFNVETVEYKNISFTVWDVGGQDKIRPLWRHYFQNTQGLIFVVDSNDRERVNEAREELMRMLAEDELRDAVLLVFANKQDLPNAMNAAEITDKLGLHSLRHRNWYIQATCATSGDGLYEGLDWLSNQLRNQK
Excerpt: Active Arf1 was detected by using The Thermo Scientific Pierce Active Arf1 Pull-Down and Detection Kit (Cat #16121) with liver cancer Huh-7 cell lysate. It is a complete kit for selective enrichment and detection of GTP-bound Arf1 GTPase through specific protein interaction with the GGA3 protein-binding domain (FIG. 1).

1H-indolo-5-carbaldehyde 5,6,7,8,9,10-hexahydrocycloocta[4,5]thieno[2,3-d]pyrimidin-4-ylhydrazone [Du 102]
lung metastases (surface tumor number) (B16-F10 melanoma): 5 | in vivo tumor suppressive effects ([1]; Drosophila screen, FIG. 8): good in vivo tumor suppressive effects | killing Drosophila stem cell tumors ([1]; in vivo): effective | tumor suppressive / inhibitory effect on tumor cells (tumor cells): Some Tumor Suppressive Effect | tumors on right side after vaccination on left side (4T1 breast carcinoma; Day 0): 0 | tumor size, left side with drug treatment (4T1 breast carcinoma; Day 0): 0 | tumors on right side after vaccination on left side (4T1 breast carcinoma; Day 5): 0 | tumor size, left side with drug treatment (4T1 breast carcinoma; Day 5): 0 | tumors on right side after vaccination on left side (4T1 breast carcinoma; Day 10): 0 | tumor size, left side with drug treatment (4T1 breast carcinoma; Day 10): 2.3 | tumors on right side after vaccination on left side (4T1 breast carcinoma; Day 15): 0 | tumor size, left side with drug treatment (4T1 breast carcinoma; Day 15): 18.4 | tumors on right side after vaccination on left side (4T1 breast carcinoma; Day 20): 3.2 | tumor size, left side with drug treatment (4T1 breast carcinoma; Day 20): 63.5 | tumors on right side after vaccination on left side (4T1 breast carcinoma; Day 25): 7.9 | tumor size, left side with drug treatment (4T1 breast carcinoma; Day 25): 102.4 | tumors on right side after vaccination on left side (4T1 breast carcinoma; Day 30): 16.4 | tumor size, left side with drug treatment (4T1 breast carcinoma; Day 30): 173.6 | Ccl5 expression ([2]; DMSO 1.0): 2.4 | Col22 expression ([2]; DMSO 1.0): 2.5 | Cxcl11 expression ([2]; DMSO 1.0): 2.8 | GzmA expression ([2]; DMSO 1.0): 2.3 | GzmB expression ([2]; DMSO 1.0): 1.9 | IL-1β expression ([2]; DMSO 1.0): 2.5 | PD-L1 expression ([2]; DMSO 1.0): 0.4 | Perforin expression ([2]; DMSO 1.0): 2.2 | Cxcl10 expression ([2]; DMSO 1.1): 3.1 | INFγ expression ([2]; DMSO 1.1): 3.2 | tumor suppressive effect (lung cancer cells A549): potency tumor suppressive effect | tumor suppressive effect (lung cancer cells A549; listed as Dul02): effective tumor suppressive effects | CT-26 colon carcinoma tumor in Athymic mice (CT-26 colon carcinoma; Day 0): 0 | CT-26 colon carcinoma tumor in Athymic mice (CT-26 colon carcinoma; Day 5): 0 | CT-26 colon carcinoma tumor in Athymic mice (CT-26 colon carcinoma; Day 10): 15 | CT-26 colon carcinoma tumor in Athymic mice (CT-26 colon carcinoma; Day 15): 117 | CT-26 colon carcinoma tumor in Athymic mice (CT-26 colon carcinoma; Day 20): 417 | CT-26 colon carcinoma tumor in Athymic mice (CT-26 colon carcinoma; Day 25): 859 | tumor suppressive effect (liver cancer cell Huh7): Tumor suppression effect | tumor suppressive effect (liver cancer cell Huh7; listed as Dul02): effective tumor suppressive effects | Gzm8 expression [3]: 2.3 | GzmA expression [3]: 2.2 | IL-1β expression [3]: 2.2 | INFγ expression [3]: 2.1 | PD-L1 expression [3]: 0.5 | Perforin expression [3]: 2.5 | inhibition of arf1 activation (Arf1): potent inhibitors
